Experimental findings from EP1191024A1, “Thiadiazines and their use as inhibitors of metalloproteinases” (Tschesche, Harald, priority 2000, dated 2002) are described below.

One experiment deals with T1, cdMMP-14 (Homo sapiens, UniProt P50281).
T1 construct: made in house; host or cells: E. coli
Nature of the experiment: MMP microfluorometric profiling assay (fluorogenic Mca-peptide substrate). The format is biochemical. Here is the method:
(§1) The tested MMP enzymes were prepared more specifically in the laboratories of the applicants, with the exception of MMP-1. MMP-1 from human rheumatoid synovial fibroblasts was purchased from Calbiochem-Novabiochem Corporation, LaJolla. Preparation of the recombinant catalytic domain of human Gelatinase A (cdMMP-2): The catalytic domain of Pro-Gelatinase A was prepared using an E. coli expression system according to the method described by Kröger et al^[19]. The proenzyme was activated with 0.5 mM APMA at 37°C prior to use in the assay. Preparation of the recombinant catalytic domain of human neutrophile Collagenase (cdMMP-8^Met80): The enzyme was expressed in E. coli as an active variant by the method of Kleine et al^[20]. Preparation of PMNL-Gelatinase (MMP-9): Latent PMNL-pro-Gelatinase was prepared from human plasma buffy coat as described by Tschesche et al^[21]. PMNL-pro-Gelatinase was activated prior to use by incubation with Trypsin at 37°C for 10 min. Inactivation of Trypsin was accomplished with TKI. Preparation of the recombinant catalytic domain of human Macrophage Elastase (cdMMP-12): The catalytic domain of MMP-12 was expressed in E. coli. The overexpressed protein was isolated as inclusion bodies and the renatured protein was purified by affinity chromatography with a hydroxamate inhibitor coupled column as described^[22]. Preparation of the recombinant catalytic domain of human Collagenase-3 (cdMMP-13): Human pro-cdMMP-13 was prepared using an E. coli expression system according to the method described^[23]. The isolated pro-cdMMP-13 was activated prior to use by incubation with 5 mM HgCl2 for 2 h at 37°C. Preparation of the recombinant catalytic domain of Membrane-Type-1 MMP (cdMMP-14): The catalytic domain of MMP-14 was expressed in E. coli and was activated by autocatalysis^[24]. Preparation of the recombinant human ectodomain of Membrane-Type-1 MMP (ΔTM-MMP-14): The ectodomain of MMP-14 was expressed in Pichia Pastoris by the method of Roderfeld et al. and activated by yeast proteases (Furin-like-proteases) during maturation^[25].
(§2) The enzymatic activity was measured using a modified version of a resonance energy transfer fluorogenic assay as described^[26]. Progress curves were monitored by following the increase in fluorescence at 393 nm (λex = 328 nm), induced by the cleavage of the (7-methoxycoumarin-4-yl)acetyl-Pro-Leu-Gly-Leu-(3-[2,4-dinitro-phenyl]-L-2,3-diamino-propionyl)-Ala-Arg-NH2 (Mca-Pro-Leu-Gly-Leu-Dpa-Ala-Arg-NH2) fluorogenic substrate by MMPs. The fluorescent MCA-group is quenched by resonance energy transfer to the 2,4-dinitrophenyl group. Matrix metalloproteinases cleave this substrate at the Gly-Leu bond. Cleavage results in the loss of energy transfer and a large increase in fluorescence of the MCA group. This substrate is commercially available from Bachem, Switzerland.
(§3) Enzyme inhibition assays were carried out in MRB which consisted of 50 mM HEPES/NaOH, pH 7.0, 10 mM CaCl2 and 0,02% (w/v) PEG 8000 at 25°C. MMP microfluorometric profiling assay was done in white U-bottomed 96-well plates (Microfluor 1 White, Dynex, USA) with a final substrate concentration of 6 µM MCA-peptide, approximately 0.3 to 5 nM MMP with variable inhibitor concentrations and 2% DMSO vehicle. From a 1.5 mM stock (100% DMSO) the inhibitors were serially diluted with MRB to 15, 10, 5, 3, 1, 0.6, 0.3, 0.1, 0.05, 0.01 and 0.005 µM final assay concentration. Column 1, rows A through H, contained only DMSO for the "enzyme-only" wells in the assay. After preincubation for 30 min at 25°C the reaction was started by addition of substrate and the plate was read on a SpectraFluor Plus (Tecan, Germany) plate reader with excitation at 330 nm and emission at 405 nm with the gain set to 150. Each measurement was done in triplicate to ensure statistically significant results. […]

The target of a further experiment is cdMMP-13 (Homo sapiens, UniProt P45452). The description is as above. Format: biochemical. The following applies: read-out: cdMMP-13 IC50. As for the experimental part:
as §1, §2, §3

The next experiment deals with T2, MMP-1 (Homo sapiens, UniProt P03956).
T2 construct: MMP-1 from human rheumatoid synovial fibroblasts was purchased; purchased Calbiochem-Novabiochem Corporation, LaJolla; host or cells: human rheumatoid synovial fibroblasts
T2 sequence (P03956 100-469): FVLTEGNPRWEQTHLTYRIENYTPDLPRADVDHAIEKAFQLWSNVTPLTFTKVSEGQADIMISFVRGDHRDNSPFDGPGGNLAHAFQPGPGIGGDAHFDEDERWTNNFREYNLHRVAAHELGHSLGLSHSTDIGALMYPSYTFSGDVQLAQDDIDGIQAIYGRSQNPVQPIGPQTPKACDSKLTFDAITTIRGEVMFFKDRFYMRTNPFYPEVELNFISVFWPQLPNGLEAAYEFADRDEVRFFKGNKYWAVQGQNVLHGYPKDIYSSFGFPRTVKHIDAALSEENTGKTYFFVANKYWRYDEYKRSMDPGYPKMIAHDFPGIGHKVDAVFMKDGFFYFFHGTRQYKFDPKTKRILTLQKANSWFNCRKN
The description is as above. The format is biochemical. As for the experimental part: as §1, §2, §3

A further experiment concerns the target T3, cdMMP-12 (Homo sapiens, UniProt P39900).
T3 construct: The catalytic domain of MMP-12 was expressed in E. coli; made in house; host or cells: E. coli
Described as above. Format: biochemical. Here is the method: as §1, §2, §3

The target of another experiment is T4, MMP-9 (Homo sapiens, UniProt P14780).
T4 construct: from tissue; host or cells: human plasma buffy coat (PMNL)
T4 sequence (P14780 107-707 limits assumed): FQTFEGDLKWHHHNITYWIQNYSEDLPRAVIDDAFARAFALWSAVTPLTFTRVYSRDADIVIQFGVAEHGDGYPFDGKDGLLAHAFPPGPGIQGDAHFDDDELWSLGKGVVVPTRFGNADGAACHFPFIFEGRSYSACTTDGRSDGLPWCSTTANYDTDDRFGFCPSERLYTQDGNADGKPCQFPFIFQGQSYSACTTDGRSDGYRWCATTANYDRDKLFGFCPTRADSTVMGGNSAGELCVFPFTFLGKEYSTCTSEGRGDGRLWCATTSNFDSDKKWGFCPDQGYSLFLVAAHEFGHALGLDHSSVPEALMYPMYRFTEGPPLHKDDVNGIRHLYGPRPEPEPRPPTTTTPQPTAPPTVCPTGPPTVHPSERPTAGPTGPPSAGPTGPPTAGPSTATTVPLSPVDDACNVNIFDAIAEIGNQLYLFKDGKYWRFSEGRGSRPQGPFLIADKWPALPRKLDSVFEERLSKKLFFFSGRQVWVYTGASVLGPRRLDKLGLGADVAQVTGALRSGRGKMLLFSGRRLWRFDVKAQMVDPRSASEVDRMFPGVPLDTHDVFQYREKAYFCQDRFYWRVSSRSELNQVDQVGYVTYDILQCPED
The description is as above. Format: biochemical. Here is the method: as §1, §2, §3

The target of the next experiment is cdMMP-2 (Homo sapiens, UniProt P08253). The description is as above. The format is biochemical. The following applies: read-out: cdMMP-2 IC50. Here is the method: The tested MMP enzymes were prepared more specifically in the laboratories of the applicants, with the exception of MMP-1. MMP-1 from human rheumatoid synovial fibroblasts was purchased from Calbiochem-Novabiochem Corporation, LaJolla. Preparation of the recombinant catalytic domain of human Gelatinase A (cdMMP-2): The catalytic domain of Pro-Gelatinase A was prepared using an E. coli expression system according to the method described by Kröger et al^[19]. The proenzyme was activated with 0.5 mM APMA at 37°C prior to use in the assay. […] Preparation of PMNL-Gelatinase (MMP-9): Latent PMNL-pro-Gelatinase was prepared from human plasma buffy coat as described by Tschesche et al^[21]. PMNL-pro-Gelatinase was activated prior to use by incubation with Trypsin at 37°C for 10 min. Inactivation of Trypsin was accomplished with TKI. […] The overexpressed protein was isolated as inclusion bodies and the renatured protein was purified by affinity chromatography with a hydroxamate inhibitor coupled column as described^[22]. Preparation of the recombinant catalytic domain of human Collagenase-3 (cdMMP-13): Human pro-cdMMP-13 was prepared using an E. coli expression system according to the method described^[23]. The isolated pro-cdMMP-13 was activated prior to use by incubation with 5 mM HgCl2 for 2 h at 37°C.
Chain of cdMMP-2 (P08253 110-446): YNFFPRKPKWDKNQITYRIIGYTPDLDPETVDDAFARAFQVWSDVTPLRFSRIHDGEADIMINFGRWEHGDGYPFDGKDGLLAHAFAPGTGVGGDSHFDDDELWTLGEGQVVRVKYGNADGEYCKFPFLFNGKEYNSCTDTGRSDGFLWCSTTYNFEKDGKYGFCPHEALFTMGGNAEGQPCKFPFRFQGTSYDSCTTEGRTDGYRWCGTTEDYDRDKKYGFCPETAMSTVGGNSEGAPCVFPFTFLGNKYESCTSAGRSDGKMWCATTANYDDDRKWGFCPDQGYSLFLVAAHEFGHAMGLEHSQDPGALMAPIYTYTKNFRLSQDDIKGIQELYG
as §2
Enzyme inhibition assays were carried out in MRB which consisted of 50 mM HEPES/NaOH, pH 7.0, 10 mM CaCl2 and 0,02% (w/v) PEG 8000 at 25°C. MMP microfluorometric profiling assay was done in white U-bottomed 96-well plates (Microfluor 1 White, Dynex, USA) with a final substrate concentration of 6 µM MCA-peptide, approximately 0.3 to 5 nM MMP with variable inhibitor concentrations and 2% DMSO vehicle. From a 1.5 mM stock (100% DMSO) the inhibitors were serially diluted with MRB to 15, 10, 5, 3, 1, 0.6, 0.3, 0.1, 0.05, 0.01 and 0.005 µM final assay concentration. Column 1, rows A through H, contained only DMSO for the "enzyme-only" wells in the assay. After preincubation for 30 min at 25°C the reaction was started by addition of substrate and the plate was read on a SpectraFluor Plus (Tecan, Germany) plate reader with excitation at 330 nm and emission at 405 nm with the gain set to 150. Each measurement was done in triplicate to ensure statistically significant results. The experiment was further controlled for background fluorescence of the substrate, for fluorescence of fully cleaved substrate and for fluorescence quenching or augmentation from solutions containing the test compounds.
Datapoints from eight different MMPs generated on the SpectraFluor Plus were directly visualized on a master Excel spreadsheet. The response of inhibition was determinated for each inhibitor concentration by comparing the amount of hydrolysis (fluorescence units generated over 30 minutes of hydrolysis) of wells containing compound with the "enzyme-only" wells in column 1. With the program GraFit (Erithacus Software Limited) a 4 parameter logistic fit to the dose-response data was used to calculate IC50 values for each compound.

The target of a further experiment is MMPs. Nature of the experiment: Ki determination in microfluorometric assay (Cheng-Prusoff, enzyme not specified). The format is biochemical, human. The following applies: enzyme not given. As for the experimental part: as §2
Enzyme inhibition assays were carried out in MRB which consisted of 50 mM HEPES/NaOH, pH 7.0, 10 mM CaCl2 and 0,02% (w/v) PEG 8000 at 25°C. […] After preincubation for 30 min at 25°C the reaction was started by addition of substrate and the plate was read on a SpectraFluor Plus (Tecan, Germany) plate reader with excitation at 330 nm and emission at 405 nm with the gain set to 150. […] The experiment was further controlled for background fluorescence of the substrate, for fluorescence of fully cleaved substrate and for fluorescence quenching or augmentation from solutions containing the test compounds. […]

T3 sequence (P39900 106-263 limits assumed): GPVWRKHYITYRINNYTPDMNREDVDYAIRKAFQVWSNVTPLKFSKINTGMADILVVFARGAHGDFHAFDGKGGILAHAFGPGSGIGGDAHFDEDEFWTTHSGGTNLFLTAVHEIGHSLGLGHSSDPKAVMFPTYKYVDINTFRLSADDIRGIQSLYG

As to `C[C@H](NS(=O)(=O)c1ccccc1)C(=O)NC1=NN=C(c2ccc(F)cc2)CS1` [Example 13, (2S)-N-[5-(4-Fluorophenyl)-6H-1,3,4-thiadiazin-2-yl]-2-[(phenylsulfonyl)amino]-propanamide], the IC50 stood at 839 nM against cdMMP-14; 1170 nM at cdMMP-13; 500 nM on MMP-1; 338 nM at cdMMP-12; 684 nM on MMP-9; 743 nM on cdMMP-2.
With `CC(C)(NS(=O)(=O)c1ccccc1)C(=O)NC1=NN=C(c2ccc(Cl)cc2)CS1` [Example 20, N-[5-(4-Chlorophenyl)-6H-1,3,4-thiadiazin-2-yl]-2-methyl-2-[(phenylsulfonyl)-amino]propanamide], the Ki at MMPs was roughly 100 nM.

One may read the IC50 as the concentration that inhibits the measured activity by half. As usually defined, the Ki is the dissociation constant of the complex between target and ligand, obtained from inhibition or displacement.
